Values quoted from earlier work as cited in US20180221315A1, “COMBINATION THERAPY USING ACAMPROSATE AND D-CYCLOSERINE” (Confluence Pharmaceuticals, LLC, priority 2015, published 2018).

Tests used:
[1] = tested on: cognitive impairment produced by hippocampal lesions, anticholinergic agents, and early social deprivation; conditions: single dose
[2] = tested on: extinction of conditioned fear, maze tasks, visual recognition memory
[3] = target: NR1 NMDA receptor subunit (strychnine-insensitive glycine binding site) (Homo sapiens, UniProt Q05586); conditions: partial agonist at glycine site of NMDA receptor; relative to glycine alone

Compound: N[C@@H]1CONC1=O [DCS, D-4-amino-3-isoxazolidone]
- effect on cognitive impairment in animal models [1]: reversed cognitive impairment
- effect on learning and memory in healthy animals [2]: enhanced extinction of conditioned fear, performance on maze tasks, and visual recognition memory
- receptor activation, level of maximum stimulation during exposure to glycine alone [3]: 40-50%
